Values quoted from earlier work, collected in patent publication US20260174880A1, “ELECTROPHILIC REACTIVE LINKERS FOR LABELING OF POLYPEPTIDES AND METHODS OF USE THEREOF” (The Brigham and Women's Hospital, Inc., priority 2023, published 2026).
Like-named read-outs stand apart in the source and are kept apart here.

Assays:
NF- B Pathway = settings: at 5 μM
Recombinant PKC = target: T1, Recombinant PKC (Homo sapiens, UniProt Q05513); settings: for % … 62.5 μM (cell…): at 62.5 μM
T1 sequence (Q05513 1-592): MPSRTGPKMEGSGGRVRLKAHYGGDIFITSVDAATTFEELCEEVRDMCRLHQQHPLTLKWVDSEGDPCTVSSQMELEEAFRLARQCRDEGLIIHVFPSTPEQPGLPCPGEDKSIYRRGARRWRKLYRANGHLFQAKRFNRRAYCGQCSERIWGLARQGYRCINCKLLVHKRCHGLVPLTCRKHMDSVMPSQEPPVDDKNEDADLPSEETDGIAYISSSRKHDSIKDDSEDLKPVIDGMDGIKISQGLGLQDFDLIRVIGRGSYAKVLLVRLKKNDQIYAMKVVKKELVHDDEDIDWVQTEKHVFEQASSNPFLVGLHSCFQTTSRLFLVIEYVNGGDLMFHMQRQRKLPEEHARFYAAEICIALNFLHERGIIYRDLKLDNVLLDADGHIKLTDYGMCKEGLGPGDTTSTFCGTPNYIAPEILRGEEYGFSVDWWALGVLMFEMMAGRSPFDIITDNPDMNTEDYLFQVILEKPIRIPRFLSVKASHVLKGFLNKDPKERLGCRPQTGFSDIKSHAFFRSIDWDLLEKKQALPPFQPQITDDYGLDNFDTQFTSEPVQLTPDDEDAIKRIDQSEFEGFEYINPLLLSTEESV

AKT1 = AKT1 (Homo sapiens, UniProt P31749); settings: the 24th table, the 25th table
Sequence of AKT1 (P31749 whole entry): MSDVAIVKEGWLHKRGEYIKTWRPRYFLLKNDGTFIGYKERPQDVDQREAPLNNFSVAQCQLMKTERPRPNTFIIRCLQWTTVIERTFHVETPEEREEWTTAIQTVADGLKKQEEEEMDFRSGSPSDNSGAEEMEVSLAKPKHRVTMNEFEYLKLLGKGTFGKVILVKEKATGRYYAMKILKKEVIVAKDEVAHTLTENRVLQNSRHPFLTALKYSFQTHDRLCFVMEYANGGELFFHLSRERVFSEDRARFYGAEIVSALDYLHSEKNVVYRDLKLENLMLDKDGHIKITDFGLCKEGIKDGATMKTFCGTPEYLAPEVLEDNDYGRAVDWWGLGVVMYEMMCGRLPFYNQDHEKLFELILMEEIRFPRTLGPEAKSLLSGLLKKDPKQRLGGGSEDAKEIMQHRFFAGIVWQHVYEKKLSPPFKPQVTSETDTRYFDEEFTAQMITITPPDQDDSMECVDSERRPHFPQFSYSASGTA

PDK1 [1] = target: T2, PDK1 (Homo sapiens, UniProt O15530); settings: the 35th table; read-out: AC…
T2 sequence (O15530 1-556): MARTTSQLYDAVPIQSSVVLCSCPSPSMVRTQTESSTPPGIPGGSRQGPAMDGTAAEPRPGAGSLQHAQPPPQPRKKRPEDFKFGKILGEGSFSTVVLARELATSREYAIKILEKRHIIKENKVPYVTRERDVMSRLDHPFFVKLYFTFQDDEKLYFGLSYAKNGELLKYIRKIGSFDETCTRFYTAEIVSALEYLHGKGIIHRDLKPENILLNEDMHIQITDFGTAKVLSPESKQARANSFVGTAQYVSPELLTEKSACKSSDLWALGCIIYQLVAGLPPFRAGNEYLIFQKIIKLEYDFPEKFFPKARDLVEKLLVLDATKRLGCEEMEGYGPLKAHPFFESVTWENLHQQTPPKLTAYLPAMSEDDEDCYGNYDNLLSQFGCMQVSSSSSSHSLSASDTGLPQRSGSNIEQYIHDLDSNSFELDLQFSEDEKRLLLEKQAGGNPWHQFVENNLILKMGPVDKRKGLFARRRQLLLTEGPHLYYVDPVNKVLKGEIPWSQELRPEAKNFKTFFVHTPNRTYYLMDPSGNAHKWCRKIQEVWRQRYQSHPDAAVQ

PDK1 [2] = target: T2, PDK1; settings: for T…: the 35th table c7; for …G: the 35th table c8
Akt = settings: the 26th table
[3] = system: NF-κB dependent transcription
MEK1 = MEK1 (Homo sapiens, UniProt Q02750)
Sequence of MEK1 (Q02750 whole entry): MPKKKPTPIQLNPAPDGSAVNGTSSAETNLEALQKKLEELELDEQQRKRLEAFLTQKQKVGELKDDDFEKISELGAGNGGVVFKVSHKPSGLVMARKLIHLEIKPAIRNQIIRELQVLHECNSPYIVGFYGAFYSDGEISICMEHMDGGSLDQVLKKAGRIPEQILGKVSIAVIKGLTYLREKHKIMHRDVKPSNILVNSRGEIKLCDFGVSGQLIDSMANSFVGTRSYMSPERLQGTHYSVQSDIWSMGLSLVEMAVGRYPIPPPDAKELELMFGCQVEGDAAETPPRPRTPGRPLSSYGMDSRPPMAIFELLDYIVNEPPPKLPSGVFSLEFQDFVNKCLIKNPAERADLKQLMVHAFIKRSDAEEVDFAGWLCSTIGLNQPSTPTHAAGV

MEK2 = MEK2 (Homo sapiens, UniProt P36507)
Sequence of MEK2 (P36507 whole entry): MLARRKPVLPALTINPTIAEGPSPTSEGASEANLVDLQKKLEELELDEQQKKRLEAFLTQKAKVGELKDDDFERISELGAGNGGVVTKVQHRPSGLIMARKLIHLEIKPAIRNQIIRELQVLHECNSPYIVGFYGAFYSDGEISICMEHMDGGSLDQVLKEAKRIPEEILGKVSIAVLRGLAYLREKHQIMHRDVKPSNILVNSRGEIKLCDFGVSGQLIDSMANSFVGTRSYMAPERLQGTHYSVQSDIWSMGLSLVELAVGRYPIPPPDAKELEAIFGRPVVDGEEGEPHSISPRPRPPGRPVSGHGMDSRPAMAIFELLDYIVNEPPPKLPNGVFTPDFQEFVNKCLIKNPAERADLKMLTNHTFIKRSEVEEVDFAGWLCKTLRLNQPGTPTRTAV

other kinases = settings: at 1000 nM EAI045
[4] = system: Molt-4 (T cell acute lymphoblastic leukemia) xenografts; settings: SCID mice
PDK1 [5] = target: T2, PDK1
MERS-COV = settings: in vitro
Aurora A = target: T3, Aurora A (Homo sapiens, UniProt O14965); settings: the 30th table
T3 sequence (O14965 1-403): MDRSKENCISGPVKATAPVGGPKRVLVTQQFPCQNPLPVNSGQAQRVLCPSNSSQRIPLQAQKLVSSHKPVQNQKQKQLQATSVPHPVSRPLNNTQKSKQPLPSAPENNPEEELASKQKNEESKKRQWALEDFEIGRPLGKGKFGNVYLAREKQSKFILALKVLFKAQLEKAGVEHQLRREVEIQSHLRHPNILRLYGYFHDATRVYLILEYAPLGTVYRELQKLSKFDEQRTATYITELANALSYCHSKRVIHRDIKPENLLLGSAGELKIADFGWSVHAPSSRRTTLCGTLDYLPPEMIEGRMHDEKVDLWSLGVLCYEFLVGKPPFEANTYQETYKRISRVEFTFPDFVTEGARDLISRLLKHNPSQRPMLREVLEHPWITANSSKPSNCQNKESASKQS

[6] = not given; remark: listed apart in the source
[7] = system: breast carcinoma, prostate carcinoma, colon carcinoma and pancreatic carcinoma xenografts; settings: in vivo
p38α MAPK = p38α MAPK (Homo sapiens, UniProt Q16539)
Sequence of p38α MAPK (Q16539 whole entry): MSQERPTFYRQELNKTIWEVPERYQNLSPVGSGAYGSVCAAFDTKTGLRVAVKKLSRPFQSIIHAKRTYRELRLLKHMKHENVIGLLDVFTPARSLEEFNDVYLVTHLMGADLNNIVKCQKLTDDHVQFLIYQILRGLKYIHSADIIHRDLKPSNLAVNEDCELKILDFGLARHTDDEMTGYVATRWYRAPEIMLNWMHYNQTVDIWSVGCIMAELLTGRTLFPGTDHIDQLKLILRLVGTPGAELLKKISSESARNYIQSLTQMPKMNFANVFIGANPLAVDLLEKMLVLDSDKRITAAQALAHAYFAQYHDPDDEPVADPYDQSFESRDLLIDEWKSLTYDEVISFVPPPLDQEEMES

In the case of `CC(C)(C)C1=NN(c2ccc(Cl)cc2)C(c2ccc(O)cc2)C1` (centres unmarked) [1a], the “% … 5 μM (NF…, U… cells)” value (NF- B Pathway) is given as 75.1%.
In the case of `CC(C)(C)C1=NN(c2ccc(Br)cc2)C(c2ccc(O)cc2)C1` (centres unmarked) [1c], the “% … 62.5 μM (cell…)” value (Recombinant PKC) is listed as 93.2%.
In the case of `CC(C)(C)C1=NN(c2ccc(C(F)(F)F)cc2)C(c2ccc(O)cc2)C1` (centres unmarked) [1d], the “% … 62.5 μM (cell…)” value (Recombinant PKC) is given as 94.2%.
For `Cc1ccc(N2N=C(C(C)(C)C)CC2c2ccc(O)cc2)cc1` (centres unmarked) [1e], the “% … 5 μM (NF…, U… cells)” value (NF- B Pathway) is listed as 62.9%.
For `CC(C)(C)C1=NN(c2ccc(C(=O)O)cc2)C(c2ccc(O)cc2)C1` (centres unmarked) [1g], the “% … 5 μM (NF…, U… cells)” value (NF- B Pathway) is listed as 40.7%.
For `CC(C)(C)C1=NN(c2cccc(Cl)c2)C(c2ccc(O)cc2)C1` (centres unmarked) [1h], the IC50 (Recombinant PKC) is listed as 3.2 µM, the “% … 62.5 μM (cell…)” value (Recombinant PKC) is listed as 96.8% and the “% … 5 μM (NF…, U… cells)” value (NF- B Pathway) is listed as 64.6%.
For `CC(C)(C)C1=NN(c2cccc(C(F)(F)F)c2)C(c2ccc(O)cc2)C1` (centres unmarked) [1j], the “% … 62.5 μM (cell…)” value (Recombinant PKC) is given as 96.1%.
In the case of `Cc1cccc(N2N=C(C(C)(C)C)CC2c2ccc(O)cc2)c1` (centres unmarked) [1k], the “% … 62.5 μM (cell…)” value (Recombinant PKC) is given as 91.7% and the “% … 5 μM (NF…, U… cells)” value (NF- B Pathway) is given as 71.7%.
For `CC(C)(C)C1=NN(c2ccc(Cl)cc2Cl)C(c2ccc(O)cc2)C1` (centres unmarked) [1n], the “% … 62.5 μM (cell…)” value (Recombinant PKC) is given as 71.0%.
For `Cc1ccc(N2N=C(C(C)(C)C)CC2c2ccc(O)cc2)c(C)c1` (centres unmarked) [1p], the “% … 62.5 μM (cell…)” value (Recombinant PKC) is given as 59.9% and the “% … 5 μM (NF…, U… cells)” value (NF- B Pathway) is given as 41.5%.
For `CC(C)(C)c1ccc(-n2c(-c3ccncc3)nc3cccnc32)cc1` [3a], the IC50 (AKT1) is given as greater than 300 µM.
For `COc1ccccc1Cn1c(-c2cccnc2N)nc2cccnc21` [3c], the IC50 (AKT1) is listed as 38 µM.
For `NCc1ccc(-n2c(-c3cccnc3)nc3cccnc32)cc1` [5b], the IC50 (AKT1) is listed as 8.8 µM.
In the case of `O=C(O)/C=C(/CCc1ccc(Cl)c(Cl)c1)c1ccccc1` [7Z], the EC50 (PDK1 [1]) is listed as 2.8 µM, the “…H…” value (PDK1 [2]; the 35th table c6) is listed as -3.71 kcal/mol and the “T…” value (PDK1 [2]) is listed as 2.80 kcal/mol. For the same compound, the “…G” value (PDK1 [2]) was -6.56 kcal/mol and the “…H…” value (PDK1 [2]; the 35th table c9) was 56.6%.
In the case of `O=C(O)/C=C(/CCc1ccc(Cl)cc1Cl)c1ccccc1` [8Z], the EC50 (PDK1 [1]) is given as 4.7 µM, the “…H…” value (PDK1 [2]; the 35th table c6) is given as -2.08 kcal/mol and the “T…” value (PDK1 [2]) is given as 4.93 kcal/mol. The “…G” value (PDK1 [2]) was -7.07 kcal/mol and the “…H…” value (PDK1 [2]; the 35th table c9) was 29.5%.
For `CC(=O)NCc1ccc(-n2c(-c3cccnc3N)nc3cccnc32)cc1` [8d], the IC50 (AKT1) is listed as 0.81 µM.
In the case of `Nc1ncccc1-c1nc2cccnc2n1-c1cccc(CNC(=O)c2ccccc2)c1` [8g], the IC50 (AKT1) is listed as 13 µM.
For `Nc1ncccc1-c1nc2cccnc2n1-c1ccc(CNCc2ccccc2)cc1` [8h], the IC50 (AKT1) is listed as 0.26 µM.
In the case of `O=C(O)/C=C(/CCc1ccc2ccccc2c1)c1ccccc1` [12Z], the EC50 (PDK1 [1]) is given as 8 µM, the “T…” value (PDK1 [2]) is given as 1.96 kcal/mol and the “…G” value (PDK1 [2]) is given as -6.87 kcal/mol. The “…H…” value (PDK1 [2]; the 35th table c9) was 58.3%.
For `Nc1ncccc1-c1nc2cc(C3CCCC3)cnc2n1-c1ccc(CNC(=O)c2ccccc2)cc1` [12d], the IC50 (Akt) is given as greater than 100000 nM.
In the case of `Nc1ncccc1-c1nc2cc(-c3cccnc3)cnc2n1-c1ccc(CNC(=O)c2cccc(F)c2)cc1` [12g], the IC50 (Akt) is listed as 400 nM.
In the case of `Cc1ccc2nc(NCCN)c3ncc(C)n3c2c1` [BMS-345541], the “NF-κB dependent transcription in mice” value [3] is listed as “block NF-κB dependent transcription”.
For `Cn1cnc2c(F)c(Nc3ccc(Br)cc3F)c(C(=O)NOCCO)cc21` [Binimetinib], the pIC50 (MEK1) is listed as 7.9 and the pIC50 (MEK2) is listed as 7.9.
For `O=C(Nc1nccs1)C(c1cc(F)ccc1O)N1Cc2ccccc2C1=O` (centres unmarked) [EAI045], the “inhibition of any other kinases in screening panels” value (other kinases) is given as no more than 20%.
In the case of `Nc1ccc(/C=C/C(=O)NCc2cc3cc(-c4ccc(C(=O)N5CCC(F)(F)CC5)cc4)cc(-c4ccc(F)cc4)c3o2)cn1` [KPT-9274], the Molt-4 xenografts [4] is listed as “induces shrinkage”.
For `O=S(=O)(Nc1nc2ccc(Cl)cc2s1)c1cc2ccccc2s1` [RS2], the Kd (PDK1 [5]) is listed as 9 µM.
In the case of `CO[C@H]1C[C@@H]2CC[C@@H](C)[C@@](O)(O2)C(=O)C(=O)N2CCCC[C@H]2C(=O)O[C@H]([C@H](C)C[C@@H]2CC[C@@H](O)[C@H](OC)C2)CC(=O)[C@H](C)/C=C(\C)[C@@H](O)[C@@H](OC)C(=O)[C@H](C)C[C@H](C)/C=C/C=C/C=C/1C` [Sirolimus], the “MERS-COV infection of Huh7 cells” value (MERS-COV) is given as “inhibits MERS-COV infection”.
In the case of `CC(=O)Nc1cccc(-n2c(=O)n(C3CC3)c(=O)c3c(Nc4ccc(I)cc4F)n(C)c(=O)c(C)c32)c1` [Trametinib], the “Absorption/distribution of an oral dose of trametinib tablet” value is given as 72%.
For `O=C(O)c1cc(-c2cccc(C(F)(F)F)c2)nc2ccccc12` [compound 34], the IC50 (C26) is listed as 0.33 nM, the IC50 (Aurora A) is listed as 26.5 µM and the Ki (Aurora A; read-out: Calculated K…) is listed as 507 µM. For the same compound, the “Sol (pH 6.5)” value [6] was 190 μg/mL.
In the case of `O=C1NC(=O)[C@@H](c2cn3c4c(cccc24)CCC3)[C@@H]1c1c[nH]c2ccccc12` [tivantinib], the “growth of carcinoma xenografts” value [7] is listed as “inhibition of growth”.
For Skepinone-B, the residence times (p38α MAPK) is given as 150 s.
